From patent publication US20240376099A1, “COMPOUNDS AND COMPOSITIONS AS INHIBITORS OF ENDOSOMAL TOLL-LIKE RECEPTORS” (Novartis AG, priority 2016, published 2024)

Target: T1, TLR7 (Homo sapiens, UniProt Q9NYK1)
T1 construct: Fresh blood was collected from normal human donors; endogenous in cells; host or cells: human PBMCs from fresh donor blood
T1 sequence (Q9NYK1 27-1049): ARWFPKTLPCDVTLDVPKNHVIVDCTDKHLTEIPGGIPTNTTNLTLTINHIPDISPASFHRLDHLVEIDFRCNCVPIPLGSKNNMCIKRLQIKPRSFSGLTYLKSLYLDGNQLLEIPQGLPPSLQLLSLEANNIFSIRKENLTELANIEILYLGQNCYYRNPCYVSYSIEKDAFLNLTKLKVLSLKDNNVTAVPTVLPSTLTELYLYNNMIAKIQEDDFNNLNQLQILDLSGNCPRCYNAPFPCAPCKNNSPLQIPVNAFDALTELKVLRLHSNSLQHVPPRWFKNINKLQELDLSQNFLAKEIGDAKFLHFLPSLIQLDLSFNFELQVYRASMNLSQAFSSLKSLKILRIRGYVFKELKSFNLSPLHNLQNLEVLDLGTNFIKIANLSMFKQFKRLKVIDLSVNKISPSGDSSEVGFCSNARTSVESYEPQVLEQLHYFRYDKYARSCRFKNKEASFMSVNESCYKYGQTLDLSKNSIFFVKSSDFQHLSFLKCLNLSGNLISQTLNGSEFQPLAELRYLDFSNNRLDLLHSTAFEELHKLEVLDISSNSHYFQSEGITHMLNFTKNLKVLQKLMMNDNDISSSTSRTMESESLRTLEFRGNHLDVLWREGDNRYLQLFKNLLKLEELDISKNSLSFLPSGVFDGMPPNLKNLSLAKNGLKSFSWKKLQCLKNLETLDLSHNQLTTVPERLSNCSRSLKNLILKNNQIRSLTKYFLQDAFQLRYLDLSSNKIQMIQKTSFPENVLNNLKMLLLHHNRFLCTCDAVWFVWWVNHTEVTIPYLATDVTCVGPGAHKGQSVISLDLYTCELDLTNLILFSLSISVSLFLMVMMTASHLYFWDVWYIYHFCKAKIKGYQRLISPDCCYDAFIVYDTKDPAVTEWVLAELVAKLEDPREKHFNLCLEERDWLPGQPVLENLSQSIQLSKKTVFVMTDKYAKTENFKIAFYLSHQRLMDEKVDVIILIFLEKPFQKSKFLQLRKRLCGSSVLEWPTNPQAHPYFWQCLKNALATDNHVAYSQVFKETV
Assay: huPBMC TLR7 Antagonist IFNα Assay
Type: cell-based
Details: human PBMCs stimulated with ssRNA40 10 μg/mL (DOTAP), 14-16 hrs; IFNα2b AlphaLISA read-out
Procedure, shortened: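 Human PBMCs from fresh donor blood (150,000 cells/well) stimulated 14–16 h at 37 °C with DOTAP-complexed ssRNA40 (final 1 μg/ml for TLR8, 10 μg/mL for TLR7) or ODN2216 (final 0.3 μM, TLR9), 0.25% DMSO, ten-point 1/3 compound dilutions. Supernatant IL-6 read by HTRF (TLR8); IFNα by IFNα2b AlphaLISA (TLR7/TLR9).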

Row | IC50 [nM] | Structure (SMILES)
1 | 565 | Cc1nc(N2CCc3c(c(C)nn3CC34CCC(N5CCOCC5)(CC3)CC4)C2)c2c(n1)c(C)nn2C [compound 25, 4-(4-((3-methyl-5-(1,3,5-trimethyl-1H-pyrazolo[4,3-d]pyrimidin-7-yl)-4,5,6,7-tetrahydro-1H-pyrazolo[4,3-c]pyridin-1-yl)methyl)bicyclo[2.2.2]octan-1-yl)morpholine]
2 | 15 | Cc1nc(N2CCc3c(c(C)nn3CC34CCC(NC5CCC5)(CC3)CC4)C2)c2c(n1)c(C)nn2C [compound 27, N-cyclobutyl-4-((3-methyl-5-(1,3,5-trimethyl-1H-pyrazolo[4,3-d]pyrimidin-7-yl)-4,5,6,7-tetrahydro-1H-pyrazolo[4,3-c]pyridin-1-yl)methyl)bicyclo[2.2.2]octan-1-amine]
3 | 840 | Cc1nc(N2CCc3c(c(C)nn3CC34CCC(N(C5CCC5)C5CCC5)(CC3)CC4)C2)c2c(n1)c(C)nn2C [compound 28, N,N-dicyclobutyl-4-((3-methyl-5-(1,3,5-trimethyl-1H-pyrazolo[4,3-d]pyrimidin-7-yl)-4,5,6,7-tetrahydro-1H-pyrazolo[4,3-c]pyridin-1-yl)methyl)bicyclo[2.2.2]octan-1-amine]
4 | 73 | Cc1nc(N2CCc3c(c(C)nn3CC34CCC(N5CCCCC5)(CC3)CC4)C2)c2cn[nH]c2n1 [compound 29, 6-methyl-4-(3-methyl-1-((4-(piperidin-1-yl)bicyclo[2.2.2]octan-1-yl)methyl)-6,7-dihydro-1H-pyrazolo[4,3-c]pyridin-5(4H)-yl)-1H-pyrazolo[3,4-d]pyrimidine]
5 | 10 | Cc1nc(N2CCc3c(c(C)nn3CC34CCC(N5CCCC5)(CC3)CC4)C2)c2cn[nH]c2n1 [compound 30, 6-methyl-4-(3-methyl-1-((4-(pyrrolidin-1-yl)bicyclo[2.2.2]octan-1-yl)methyl)-6,7-dihydro-1H-pyrazolo[4,3-c]pyridin-5(4H)-yl)-1H-pyrazolo[3,4-d]pyrimidine]
6 | 13 | Cc1nc(N2CCc3c(c(C)nn3CC34CCC(NCC5(CO)COC5)(CC3)CC4)C2)c2c(n1)c(C)nn2C [compound 31, (3-(((4-((3-methyl-5-(1,3,5-trimethyl-1H-pyrazolo[4,3-d]pyrimidin-7-yl)-4,5,6,7-tetrahydro-1H-pyrazolo[4,3-c]pyridin-1-yl)methyl)bicyclo[2.2.2]octan-1-yl)amino)methyl)oxetan-3-yl)methanol]
7 | 55 | Cc1nc(N2CCc3c(c(C)nn3CC34CCC(NC(=O)[C@@H]5COCCN5)(CC3)CC4)C2)c2c(n1)c(C)nn2C [compound 33, (S)-N-(4-((3-methyl-5-(1,3,5-trimethyl-1H-pyrazolo[4,3-d]pyrimidin-7-yl)-4,5,6,7-tetrahydro-1H-pyrazolo[4,3-c]pyridin-1-yl)methyl)bicyclo[2.2.2]octan-1-yl)morpholine-3-carboxamide]
8 | 13 | Cc1nc(N2CCc3c(c(C)nn3CC34CCC(NC(=O)[C@@H]5CNCCO5)(CC3)CC4)C2)c2c(n1)c(C)nn2C [compound 34, (S)-N-(4-((3-methyl-5-(1,3,5-trimethyl-1H-pyrazolo[4,3-d]pyrimidin-7-yl)-4,5,6,7-tetrahydro-1H-pyrazolo[4,3-c]pyridin-1-yl)methyl)bicyclo[2.2.2]octan-1-yl)morpholine-2-carboxamide]
9 | 7 | Cc1nc(N2CCc3c(c(C)nn3CC34CCC(NC(=O)[C@H]5CNCCO5)(CC3)CC4)C2)c2c(n1)c(C)nn2C [compound 36, (R)-N-(4-((3-methyl-5-(1,3,5-trimethyl-1H-pyrazolo[4,3-d]pyrimidin-7-yl)-4,5,6,7-tetrahydro-1H-pyrazolo[4,3-c]pyridin-1-yl)methyl)bicyclo[2.2.2]octan-1-yl)morpholine-2-carboxamide]
10 | 159 | Cc1nc(N2CCc3c(c(C)nn3CC34CCC(N5CCOCC5)(CC3)CC4)C2)c2c(C)noc2n1 [compound 37, 3,6-dimethyl-4-(3-methyl-1-((4-morpholinobicyclo[2.2.2]octan-1-yl)methyl)-6,7-dihydro-1H-pyrazolo[4,3-c]pyridin-5(4H)-yl)isoxazolo[5,4-d]pyrimidine]
11 | 42 | Cc1nc(N2CCc3c(c(C)nn3CC34CCC(N5CCCCC5)(CC3)CC4)C2)c2c(n1)c(C)nn2C [compound 38, 1,3,5-trimethyl-7-(3-methyl-1-((4-(piperidin-1-yl)bicyclo[2.2.2]octan-1-yl)methyl)-6,7-dihydro-1H-pyrazolo[4,3-c]pyridin-5(4H)-yl)-1H-pyrazolo[4,3-d]pyrimidine]
12 | 60 | Cc1nc(N2CCc3c(c(C)nn3CC34CCC(N5CCCCC5)(CC3)CC4)C2)c2cnn(C)c2n1 [compound 39, 1,6-dimethyl-4-(3-methyl-1-((4-(piperidin-1-yl)bicyclo[2.2.2]octan-1-yl)methyl)-6,7-dihydro-1H-pyrazolo[4,3-c]pyridin-5(4H)-yl)-1H-pyrazolo[3,4-c]pyrimidine]
13 | 70 | [2H]C([2H])([2H])N(C([2H])([2H])[2H])C12CCC(Cn3nc(C)c4c3CCN(c3nc(C)nc5c(C)nn(C)c35)C4)(CC1)CC2 [compound 40, 4-((3-methyl-5-(1,3,5-trimethyl-1H-pyrazolo[4,3-d]pyrimidin-7-yl)-4,5,6,7-tetrahydro-1H-pyrazolo[4,3-c]pyridin-1-yl)methyl)-N,N-bis(trideuteromethyl)bicyclo[2.2.2]octan-1-amine]
14 | 6 | Cc1nn(CC23CCC(N)(CC2)CC3)c2c1CN(c1ccnc3[nH]ncc13)CC2 [compound 41, 4-((3-methyl-5-(1H-pyrazolo[3,4-b]pyridin-4-yl)-4,5,6,7-tetrahydro-1H-pyrazolo[4,3-c]pyridin-1-yl)methyl)bicyclo[2.2.2]octan-1-amine]
15 | 17 | Cc1c2c(nn1CC13CCC(N)(CC1)CC3)CCN(c1ccnc3[nH]ncc13)C2 [compound 42, 4-((3-methyl-5-(1H-pyrazolo[3,4-b]pyridin-4-yl)-4,5,6,7-tetrahydro-2H-pyrazolo[4,3-c]pyridin-2-yl)methyl)bicyclo[2.2.2]octan-1-amine]
16 | 38 | Cc1cc(N2CCc3c(c(C)nn3CC34CCC(N)(CC3)C4)C2)c2cnn(C)c2n1 [compound 44, 4-((5-(1,6-dimethyl-1H-pyrazolo[3,4-b]pyridin-4-yl)-3-methyl-4,5,6,7-tetrahydro-1H-pyrazolo[4,3-c]pyridin-1-yl)methyl)bicyclo[2.2.1]heptan-1-amine]
17 | 38 | Cc1cc(N2CCc3c(c(C(F)(F)F)nn3CC34CCC(N)(CC3)CC4)C2)c2cnn(C)c2n1 [compound 45, 4-((5-(1,6-dimethyl-1H-pyrazolo[3,4-b]pyridin-4-yl)-3-(trifluoromethyl)-4,5,6,7-tetrahydro-1H-pyrazolo[4,3-c]pyridin-1-yl)methyl)bicyclo[2.2.2]octan-1-amine]
18 | 40 | Cc1cc(N2CCc3c(c(C)nn3CC34CCC(NCC(=O)N5CCCCC5)(CC3)CC4)C2)c2cnn(C)c2n1 [compound 99, 2-((4-((5-(1,6-dimethyl-1H-pyrazolo[3,4-b]pyridin-4-yl)-3-methyl-4,5,6,7-tetrahydro-1H-pyrazolo[4,3-c]pyridin-1-yl)methyl)bicyclo[2.2.2]octan-1-yl)amino)-1-(piperidin-1-yl)ethanone]
19 | 5 | Cc1cc(N2CCc3c(c(C)nn3CC34CCC(NC(=O)CN5CCCC5)(CC3)CC4)C2)c2cnn(C)c2n1 [compound 100, N-(4-((5-(1,6-dimethyl-1H-pyrazolo[3,4-b]pyridin-4-yl)-3-methyl-4,5,6,7-tetrahydro-1H-pyrazolo[4,3-c]pyridin-1-yl)methyl)bicyclo[2.2.2]octan-1-yl)-2-(pyrrolidin-1-yl)acetamide]
20 | 22 | COCCNC12CCC(Cn3nc(C)c4c3CCN(c3cc(C)nc5c3cnn5C)C4)(CC1)OC2 [compound 102, 1-((5-(1,6-dimethyl-1H-pyrazolo[3,4-b]pyridin-4-yl)-3-methyl-4,5,6,7-tetrahydro-1H-pyrazolo[4,3-c]pyridin-1-yl)methyl)-N-(2-methoxyethyl)-2-oxabicyclo[2.2.2]octan-4-amine]
21 | 14 | Cc1cc(N2CCc3c(c(C)nn3CC34CCC(NC(=O)CCN(C)C)(CC3)CC4)C2)c2cnn(C)c2n1 [compound 105, N-(4-((5-(1,6-dimethyl-1H-pyrazolo[3,4-b]pyridin-4-yl)-3-methyl-4,5,6,7-tetrahydro-1H-pyrazolo[4,3-c]pyridin-1-yl)methyl)bicyclo[2.2.2]octan-1-yl)-3-(dimethylamino)propanamide]
